#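 Following 48 hours of exposure in 96-well plates, responses at five concentrations were used to interpolate endpoints linearly. TGI marks complete inhibition of growth.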
# Tests used:
# Experiment in all cases: NCI tumour cell line growth inhibition, 48 h
# OVCAR-8 ovarian = test system: OVCAR-8 ovarian
# NCI/ADR-RES ovarian = test system: NCI/ADR-RES ovarian
# NCI-H226 lung = test system: NCI-H226 lung
# NCI-H460 lung = test system: NCI-H460 lung
# SF-539 CNS = test system: SF-539 CNS
# UACC-257 melanoma = test system: UACC-257 melanoma
# HCT-15 colon = test system: HCT-15 colon
# DMS 273 small cell lung = test system: DMS 273 small cell lung
# MALME-3M melanoma = test system: MALME-3M melanoma
# HOP-18 NSCLC = test system: HOP-18 NSCLC
# RPMI-8226 leukemia = test system: RPMI-8226 leukemia
# SNB-78 CNS = test system: SNB-78 CNS
# SW-620 colon = test system: SW-620 colon
# SN12C renal = test system: SN12C renal
# OVCAR-5 ovarian = test system: OVCAR-5 ovarian
# SK-MEL-5 melanoma = test system: SK-MEL-5 melanoma
# M19-MEL melanoma = test system: M19-MEL melanoma
# NCI-H522 lung = test system: NCI-H522 lung
# HOP-92 NSCLC = test system: HOP-92 NSCLC
# SK-OV-3 ovarian = test system: SK-OV-3 ovarian
# SN12K1 renal = test system: SN12K1 renal
# NCI-H23 lung = test system: NCI-H23 lung
# P388 leukemia = test system: P388 leukemia
# EKVX NSCLC = test system: EKVX NSCLC
# CCRF-CEM leukemia = test system: CCRF-CEM leukemia
# IGROV1 ovarian = test system: IGROV1 ovarian
# A498 renal = test system: A498 renal
# U251 CNS = test system: U251 CNS
# SK-MEL-2 melanoma = test system: SK-MEL-2 melanoma
# HCT-116 colon = test system: HCT-116 colon
# XF 498 CNS = test system: XF 498 CNS
# MCF7 breast = test system: MCF7 breast
# KM12 colon = test system: KM12 colon
# OVCAR-4 ovarian = test system: OVCAR-4 ovarian
# A549 NSCLC = test system: A549 NSCLC
# HCC-2998 colon = test system: HCC-2998 colon
# HOP-62 NSCLC = test system: HOP-62 NSCLC
# K-562 leukemia = test system: K-562 leukemia
# SF-268 CNS = test system: SF-268 CNS
# SNB-75 CNS = test system: SNB-75 CNS
# OVCAR-3 ovarian = test system: OVCAR-3 ovarian
# LOX IMVI melanoma = test system: LOX IMVI melanoma
# DMS 114 small cell lung = test system: DMS 114 small cell lung
# HL-60(TB) leukemia = test system: HL-60(TB) leukemia
# RXF 393 renal = test system: RXF 393 renal
# HT29 colon = test system: HT29 colon
# UACC-62 melanoma = test system: UACC-62 melanoma
# MOLT-4 leukemia = test system: MOLT-4 leukemia
# SK-MEL-28 melanoma = test system: SK-MEL-28 melanoma
# SF-295 CNS = test system: SF-295 CNS
# UO-31 renal = test system: UO-31 renal
# DLD-1 colon = test system: DLD-1 colon
# CAKI-1 renal = test system: CAKI-1 renal
# COLO 205 colon = test system: COLO 205 colon
# P388/ADR leukemia = test system: P388/ADR leukemia
# SNB-19 CNS = test system: SNB-19 CNS
# KM20L2 colon = test system: KM20L2 colon
compound,measurement,setting,value
O=C1c2ccccc2OCC1/C=N/O (stereo unspecified),TGI,OVCAR-8 ovarian,> 100000 nM
same,TGI,NCI/ADR-RES ovarian,> 100000 nM
same,TGI,NCI-H226 lung,> 100000 nM
same,TGI,NCI-H460 lung,> 100000 nM
same,TGI,SF-539 CNS,> 100000 nM
same,TGI,UACC-257 melanoma,> 100000 nM
same,TGI,HCT-15 colon,> 100000 nM
same,TGI,DMS 273 small cell lung,> 100000 nM
same,TGI,MALME-3M melanoma,> 100000 nM
same,TGI,HOP-18 NSCLC,> 100000 nM
same,TGI,RPMI-8226 leukemia,> 100000 nM
same,TGI,SNB-78 CNS,> 100000 nM
same,TGI,SW-620 colon,> 100000 nM
same,TGI,SN12C renal,> 100000 nM
same,TGI,OVCAR-5 ovarian,> 100000 nM
same,TGI,SK-MEL-5 melanoma,> 100000 nM
same,TGI,M19-MEL melanoma,> 100000 nM
same,TGI,NCI-H522 lung,62100 nM
same,TGI,HOP-92 NSCLC,> 96000 nM
same,TGI,SK-OV-3 ovarian,> 100000 nM
same,TGI,SN12K1 renal,> 100000 nM
same,TGI,NCI-H23 lung,> 100000 nM
same,TGI,P388 leukemia,> 63700 nM
same,TGI,EKVX NSCLC,> 100000 nM
same,TGI,CCRF-CEM leukemia,> 100000 nM
same,TGI,IGROV1 ovarian,> 100000 nM
same,TGI,A498 renal,> 100000 nM
same,TGI,U251 CNS,> 100000 nM
same,TGI,SK-MEL-2 melanoma,> 100000 nM
same,TGI,HCT-116 colon,> 100000 nM
same,TGI,XF 498 CNS,> 100000 nM
same,TGI,MCF7 breast,> 100000 nM
same,TGI,KM12 colon,> 100000 nM
same,TGI,OVCAR-4 ovarian,> 100000 nM
same,TGI,A549 NSCLC,> 100000 nM
same,TGI,HCC-2998 colon,> 100000 nM
same,TGI,HOP-62 NSCLC,> 100000 nM
same,TGI,K-562 leukemia,> 100000 nM
same,TGI,SF-268 CNS,> 100000 nM
same,TGI,SNB-75 CNS,> 100000 nM
same,TGI,OVCAR-3 ovarian,> 100000 nM
same,TGI,LOX IMVI melanoma,> 100000 nM
same,TGI,DMS 114 small cell lung,98900 nM
same,TGI,HL-60(TB) leukemia,> 100000 nM
same,TGI,RXF 393 renal,76400 nM
same,TGI,HT29 colon,> 100000 nM
same,TGI,UACC-62 melanoma,> 100000 nM
same,TGI,MOLT-4 leukemia,> 100000 nM
same,TGI,SK-MEL-28 melanoma,> 100000 nM
same,TGI,SF-295 CNS,> 100000 nM
same,TGI,UO-31 renal,> 100000 nM
same,TGI,DLD-1 colon,> 100000 nM
CC1[C@@H]2CC=C3C4CCC5Cc6nc7c(nc6C[C@@]5(C)C4CC(=O)[C@]32CO[C@@]1(O)C(O)CC(C)(C)O)CC1CCC2C3=C[C@H]4O[C@@]5(O[C@@](C)(CO)C[C@@H]5O)C(C)[C@@]4(O)[C@]3(C)[C@@H](O)CC2[C@]1(C)C7 (stereo partly specified),TGI,OVCAR-8 ovarian,3600 nM
same,TGI,NCI/ADR-RES ovarian,2740 nM
same,TGI,NCI-H226 lung,376 nM
same,TGI,CAKI-1 renal,417 nM
same,TGI,COLO 205 colon,60.8 nM
same,TGI,NCI-H460 lung,36.4 nM
same,TGI,SF-539 CNS,42.3 nM
same,TGI,UACC-257 melanoma,112 nM
same,TGI,HCT-15 colon,330 nM
same,TGI,DMS 273 small cell lung,1.74 nM
same,TGI,MALME-3M melanoma,91.1 nM
same,TGI,HOP-18 NSCLC,739 nM
same,TGI,RPMI-8226 leukemia,45 nM
same,TGI,SNB-78 CNS,483 nM
same,TGI,SW-620 colon,56.4 nM
same,TGI,SN12C renal,2900 nM
same,TGI,OVCAR-5 ovarian,62.8 nM
same,TGI,SK-MEL-5 melanoma,46.9 nM
same,TGI,M19-MEL melanoma,729 nM
same,TGI,NCI-H522 lung,124 nM
same,TGI,HOP-92 NSCLC,1120 nM
same,TGI,SK-OV-3 ovarian,27.9 nM
same,TGI,SN12K1 renal,406 nM
same,TGI,NCI-H23 lung,27.2 nM
same,TGI,EKVX NSCLC,47.9 nM
same,TGI,CCRF-CEM leukemia,29.4 nM
same,TGI,IGROV1 ovarian,736 nM
same,TGI,A498 renal,11.2 nM
same,TGI,P388/ADR leukemia,89.1 nM
same,TGI,U251 CNS,34.5 nM
same,TGI,SNB-19 CNS,329 nM
same,TGI,SK-MEL-2 melanoma,89.1 nM
same,TGI,HCT-116 colon,501 nM
same,TGI,XF 498 CNS,50.2 nM
same,TGI,MCF7 breast,192 nM
same,TGI,KM20L2 colon,137 nM
same,TGI,KM12 colon,571 nM
same,TGI,OVCAR-4 ovarian,1290 nM
same,TGI,A549 NSCLC,383 nM
same,TGI,HCC-2998 colon,832 nM
same,TGI,HOP-62 NSCLC,2.48 nM
same,TGI,K-562 leukemia,434 nM
same,TGI,SF-268 CNS,124 nM
same,TGI,SNB-75 CNS,3.13 nM
same,TGI,OVCAR-3 ovarian,2360 nM
same,TGI,LOX IMVI melanoma,91.4 nM
same,TGI,DMS 114 small cell lung,47.1 nM
same,TGI,HL-60(TB) leukemia,58.1 nM
same,TGI,HT29 colon,48.4 nM
same,TGI,UACC-62 melanoma,10.8 nM
same,TGI,MOLT-4 leukemia,376 nM
same,TGI,SF-295 CNS,0.713 nM
same,TGI,UO-31 renal,83.6 nM
same,TGI,DLD-1 colon,1150 nM
